These are literature values, as cited in PubChem BioAssay AID1259409 (Chemical Carcinogenesis Research Information System (CCRIS), 2018).

“And” between values parts separate entries of the source, which are not always exact repeats. Equal values may be shown once.

In this data set the test system is rodent chemically induced tumor inhibition, incidence and multiplicity. Briefly: CCRIS tumor inhibitor studies.
[1] abbreviates: Carcinogen: BENZO[A]PYRENE, 50-32-8, Dose [Inhibitor]: 0, 10 MG SUSPENDED IN 0.3 ML COTTONSEED OIL 3/WK FOR 4 WK ON DAYS OTHER THAN THE CARCINOGEN TREATMENT, 3 ADDITIONAL DOSE, Route [Inhibitor]: GAVAGE, Species: MOUSE, Strain/Sex: STRAIN-A/FEMALE, Target Tissue: Type of Lesion: FORESTOMACH: TUMOR, Dose [Carcinogen]: 1 MG IN 0.3 ML COTTONSEED OIL 2/WK FOR 4 WK, Promoter: NONE USED.

Setting [2] is: Carcinogen: BENZO[A]PYRENE, 50-32-8, Dose [Inhibitor]: 0, 10 MG SUSPENDED IN 0.3 ML COTTONSEED OIL 3/WK FOR 4 WK ON DAYS OTHER THAN THE CARCINOGEN TREATMENT, 3 ADDITIONAL DOSE, Route [Inhibitor]: GAVAGE, Species: MOUSE, Strain/Sex: STRAIN-A/FEMALE, Target Tissue: Type of Lesion: LUNG: TUMOR, Dose [Carcinogen]: 1 MG IN 0.3 ML COTTONSEED OIL 2/WK FOR 4 WK, Promoter: NONE USED.

Regarding `O=C(O)CNC(=O)c1ccccc1`, the “tumour outcome (control, treated, inhibition, significance)” value (Carcinogen: N-BUTYL-N-(4-HYDROXYBUTYL)NITROSAMINE, 3817-11-6, Dose [Inhibitor]: 5% DIET DAILY FOR 34 WK STARTING AT COMPLETION OF CARCINOGEN TREATMENT (STUDY DURATION: 38 WK), Route [Inhibitor]: ORAL, Species: RAT, Strain/Sex: F344/MALE, Target Tissue: Type of Lesion: URINARY BLADDER: PAPILLOMA, Dose [Carcinogen]: 0.01% IN DRINKING WATER FOR 4 WK, Promoter: NONE USED) is 33%, 23%, 30%, not significant.
With `C=CCc1cc(OC)c2c(c1)OCO2`, the “tumour outcome (control, treated, inhibition, significance)” value under setting [1] is given as 12/17 (71%), 13/18 (72%), -1%, not significant and the “tumour outcome (control, treated, inhibition, significance)” value under setting [2] was 17/17 (100%), 18/18 (100%), 0%, not significant.
For the molecule `CCCc1cc(OC)c2c(c1)OCO2`, the “tumour outcome (control, treated, inhibition, significance)” value is listed as 12/17 (71%), 12/19 (63%), 11%, not significant under setting [1] and 17/17 (100%), 19/19 (100%), 0%, not significant under setting [2].
For `CCc1cccc2c3c([nH]c12)C(CC)(CC(=O)O)OCC3` (stereo not given), the “tumour outcome (control, treated, inhibition, significance)” value is on record as 60%, 46%, 23%, not calculated (Carcinogen: N-NITROSOBIS(2-HYDROXYPROPYL)AMINE, 53609-64-6, Dose [Inhibitor]: 0, 0.015% IN DIET FOR 8 WK BEGINNING POST CARCINOGEN TREATMENT (STUDY DURATION: 20 WK), Route [Inhibitor]: ORAL, Species: RAT, Strain/Sex: WISTAR/MALE, Target Tissue: Type of Lesion: LUNG: ADENOCARCINOMA, Dose [Carcinogen]: 2,000 PPM IN DRINKING WATER FOR 12 WK, Promoter: NONE); 20%, 0%, 100%, not calculated (Carcinogen: N-NITROSOBIS(2-HYDROXYPROPYL)AMINE, 53609-64-6, Dose [Inhibitor]: 0, 0.015% IN DIET FOR 8 WK BEGINNING POST CARCINOGEN TREATMENT (STUDY DURATION: 20 WK), Route [Inhibitor]: ORAL, Species: RAT, Strain/Sex: WISTAR/MALE, Target Tissue: Type of Lesion: LUNG: SQUAMOUS CELL CARCINOMA, Dose [Carcinogen]: 2,000 PPM IN DRINKING WATER FOR 12 WK, Promoter: NONE); 15/17 (88%), 11/18 (61%), 31%, not significant (Carcinogen: N-NITROSOBIS(2-OXOPROPYL)AMINE [60599-38-4], Dose [Inhibitor]: 10 MG/KG BW ORALLY 3X A WEEK FOR 18 WK (STUDY DURATION: 22 WK), Route [Inhibitor]: ORAL, Species: HAMSTER, Strain/Sex: SYRIAN GOLDEN/FEMALE WITH BILIOENTEROSTOMY, Target Tissue: Type of Lesion: BILE DUCT: ADENOMA, Dose [Carcinogen]: 10 MG/KG BW EVERY 2 WK FOR 18 WK (STUDY DURATION: 22 WK)); 15/17 (88%), 6/18 (33%), 63%, p< 0.01 (Carcinogen: N-NITROSOBIS(2-OXOPROPYL)AMINE [60599-38-4], Dose [Inhibitor]: 10 MG/KG BW ORALLY 3X A WEEK FOR 18 WK (STUDY DURATION: 22 WK), Route [Inhibitor]: ORAL, Species: HAMSTER, Strain/Sex: SYRIAN GOLDEN/FEMALE WITH BILIOENTEROSTOMY, Target Tissue: Type of Lesion: BILE DUCT: CARCINOMA, Dose [Carcinogen]: 10 MG/KG BW EVERY 2 WK FOR 18 WK (STUDY DURATION: 22 WK)).
In the case of `CC(C)(C)c1ccccc1O`, the “tumour outcome (control, treated, inhibition, significance)” value (Carcinogen: BENZO[A]PYRENE, 50-32-8, Dose [Inhibitor]: 0.03 MMOL/G OF DIET DAILY STARTING 7 D BEFORE AND CONTINUING THROUGH 3 D AFTER CARCINOGEN TREATMENT FOLLOWED BY OBSERVAT, Route [Inhibitor]: ORAL, Species: MOUSE, Strain/Sex: ICR/FEMALE, Target Tissue: Type of Lesion: FORESTOMACH: NEOPLASM, Dose [Carcinogen]: 1 MG IN 0.2 ML CORN OIL 2/WK FOR 4 WK, Promoter: NONE USED) is 94%, 85%, 10%, not significant and 100%, 95%, 5%, not significant.
Consider `C#C[C@]1(O)CC[C@H]2[C@@H]3CCc4cc(O)ccc4[C@H]3CC[C@@]21C`, for which the “tumour outcome (control, treated, inhibition, significance)” value was 8/17 (47%), 4/20 (20%), 57%, not calculated (Carcinogen: N-METHYL-N-NITROSOUREA, 684-93-5, Dose [Inhibitor]: 0, 0.001% IN DIET BEGINNING POST CARCINOGEN TREATMENT AND CONTINUING FOR 23 WK (STUDY DURATION: 25 WK), Route [Inhibitor]: ORAL, Species: RAT, Strain/Sex: F344/MALE, Target Tissue: Type of Lesion: FORESTOMACH: PAPILLOMA, Dose [Carcinogen]: 50 MG/KG 4/2 WK, Promoter: NONE USED); 2/17 (12%), 2/20 (10%), 17%, not calculated (Carcinogen: N-METHYL-N-NITROSOUREA, 684-93-5, Dose [Inhibitor]: 0, 0.001% IN DIET BEGINNING POST CARCINOGEN TREATMENT AND CONTINUING FOR 23 WK (STUDY DURATION: 25 WK), Route [Inhibitor]: ORAL, Species: RAT, Strain/Sex: F344/MALE, Target Tissue: Type of Lesion: FORESTOMACH: SQUAMOUS CELL CARCINOMA, Dose [Carcinogen]: 50 MG/KG 4/2 WK, Promoter: NONE USED); 3/17 (18%), 0/20 (0%), 100%, not calculated (Carcinogen: N-METHYL-N-NITROSOUREA, 684-93-5, Dose [Inhibitor]: 0, 0.001% IN DIET BEGINNING POST CARCINOGEN TREATMENT AND CONTINUING FOR 23 WK (STUDY DURATION: 25 WK), Route [Inhibitor]: ORAL, Species: RAT, Strain/Sex: F344/MALE, Target Tissue: Type of Lesion: HEMATOPOIETIC SYSTEM: LYMPHOMA OR LEUKEMIA, Dose [Carcinogen]: 50 MG/KG 4/2 WK, Promoter: NONE USED); 9/17 (53%), 0/20 (0%), 100%, not calculated (Carcinogen: N-METHYL-N-NITROSOUREA, 684-93-5, Dose [Inhibitor]: 0, 0.001% IN DIET BEGINNING POST CARCINOGEN TREATMENT AND CONTINUING FOR 23 WK (STUDY DURATION: 25 WK), Route [Inhibitor]: ORAL, Species: RAT, Strain/Sex: F344/MALE, Target Tissue: Type of Lesion: SMALL INTESTINE: ADENOCARCINOMA, Dose [Carcinogen]: 50 MG/KG 4/2 WK, Promoter: NONE USED); 10/17 (59%), 7/20 (35%), 41%, not calculated (Carcinogen: N-METHYL-N-NITROSOUREA, 684-93-5, Dose [Inhibitor]: 0, 0.001% IN DIET BEGINNING POST CARCINOGEN TREATMENT AND CONTINUING FOR 23 WK (STUDY DURATION: 25 WK), Route [Inhibitor]: ORAL, Species: RAT, Strain/Sex: F344/MALE, Target Tissue: Type of Lesion: SMALL INTESTINE: ADENOMA, Dose [Carcinogen]: 50 MG/KG 4/2 WK, Promoter: NONE USED); 1/17 (6%), 0/20 (0%), 100%, not calculated (Carcinogen: N-METHYL-N-NITROSOUREA, 684-93-5, Dose [Inhibitor]: 0, 0.001% IN DIET BEGINNING POST CARCINOGEN TREATMENT AND CONTINUING FOR 23 WK (STUDY DURATION: 25 WK), Route [Inhibitor]: ORAL, Species: RAT, Strain/Sex: F344/MALE, Target Tissue: Type of Lesion: THYROID: ADENOCARCINOMA, Dose [Carcinogen]: 50 MG/KG 4/2 WK, Promoter: NONE USED). In addition, the “tumour outcome (control, treated, inhibition, significance)” value by setting is: (Carcinogen: N-METHYL-N-NITROSOUREA, 684-93-5, Dose [Inhibitor]: 0, 0.001% IN DIET BEGINNING POST CARCINOGEN TREATMENT AND CONTINUING FOR 23 WK (STUDY DURATION: 25 WK), Route [Inhibitor]: ORAL, Species: RAT, Strain/Sex: F344/MALE, Target Tissue: Type of Lesion: THYROID: ADENOMA, Dose [Carcinogen]: 50 MG/KG 4/2 WK, Promoter: NONE USED) 3/17 (18%), 0/20 (0%), 100%, not calculated; (Carcinogen: N-METHYL-N-NITROSOUREA, 684-93-5, Dose [Inhibitor]: 0, 0.001% IN DIET BEGINNING POST CARCINOGEN TREATMENT AND CONTINUING FOR 23 WK (STUDY DURATION: 25 WK), Route [Inhibitor]: ORAL, Species: RAT, Strain/Sex: F344/MALE, Target Tissue: Type of Lesion: TONGUE: PAPILLOMA, Dose [Carcinogen]: 50 MG/KG 4/2 WK, Promoter: NONE USED) 2/17 (12%), 2/20 (10%), 16%, not calculated; (Carcinogen: N-METHYL-N-NITROSOUREA, 684-93-5, Dose [Inhibitor]: 0, 0.001% IN DIET BEGINNING POST CARCINOGEN TREATMENT AND CONTINUING FOR 23 WK (STUDY DURATION: 25 WK), Route [Inhibitor]: ORAL, Species: RAT, Strain/Sex: F344/MALE, Target Tissue: Type of Lesion: TONGUE: SQUAMOUS CELL CARCINOMA, Dose [Carcinogen]: 50 MG/KG 4/2 WK, Promoter: NONE USED) 2/17 (12%), 0/20 (0%), 100%, not calculated; (Carcinogen: N-METHYL-N-NITROSOUREA, 684-93-5, Dose [Inhibitor]: 0, 0.001% IN DIET BEGINNING POST CARCINOGEN TREATMENT AND CONTINUING FOR 23 WK (STUDY DURATION: 25 WK), Route [Inhibitor]: ORAL, Species: RAT, Strain/Sex: F344/MALE, Target Tissue: Type of Lesion: URINARY BLADDER: PAPILLOMA, Dose [Carcinogen]: 50 MG/KG 4/2 WK, Promoter: NONE USED) 2/17 (18%), 0/20 (0%), 100%, not calculated.
